# Legend:
# Huh-7 = assay: Cytotoxicity against human HuH7 cells assessed as growth inhibition incubated for 48 hrs by Hoechst 33342 staining based assay; assay type: cell-based; details: Huh-7, 48 h
# [1] = test system: Hepatocyte growth factor receptor (Homo sapiens), P08581 [Y1235D]; assay: Binding affinity to human partial length MET Y1235D mutant (D1010 to S1367 residues) expressed in bacterial expression system assessed as residual binding level at 10 uM by Kinomescan method relative to control
# [2] = target: ALK tyrosine kinase receptor (Homo sapiens) (UniProt Q9UM73); assay: Binding affinity to wild-type human partial length ALK (I1088 to E1409 residues) expressed in mammalian expression system assessed as residual binding level at 10 uM by Kinomescan method relative to control
# [3] = target: Casein kinase II subunit alpha' (Homo sapiens) (UniProt P19784); assay: Binding affinity to wild-type human full length CSNK2A2 (M1 to R350 residues) expressed in mammalian expression system assessed as residual binding level at 10 uM by Kinomescan method relative to control
# [4] = target: Casein kinase I isoform delta (Homo sapiens) (UniProt P48730); assay: Binding affinity to wild-type human full length CSNK1D (M1 to K409 residues) expressed in bacterial expression system assessed as residual binding level at 10 uM by Kinomescan method relative to control
# [5] = test system: Epidermal growth factor receptor (Homo sapiens), P00533 [G719S]; assay: Binding affinity to human partial length EGFR G719S mutant (R669 to V1011 residues) expressed in bacterial expression system assessed as residual binding level at 10 uM by Kinomescan method relative to control
# [6] = target: Serine/threonine-protein kinase PLK4 (Homo sapiens) (UniProt O00444); assay: Binding affinity to wild-type human partial length PLK4 (M1 to S273 residues) expressed in mammalian expression system assessed as residual binding level at 10 uM by Kinomescan method relative to control
# [7] = test system: Proto-oncogene tyrosine-protein kinase receptor Ret (Homo sapiens), P07949 [V804L]; assay: Binding affinity to human partial length RET V804L mutant (E713 to D1014 residues) expressed in bacterial expression system assessed as residual binding level at 10 uM by Kinomescan method relative to control
# [8] = target: Dual specificity mitogen-activated protein kinase kinase 4 (Homo sapiens) (UniProt P45985); assay: Binding affinity to wild-type human partial length MEK4 (S84 to D399 residues) expressed in mammalian expression system assessed as residual binding level at 10 uM by Kinomescan method relative to control
# [9] = target: Testis-specific serine/threonine-protein kinase 3 (Homo sapiens) (UniProt Q96PN8); assay: Binding affinity to wild-type human full length TSSK3 (M1 to T268 residues) expressed in mammalian expression system assessed as residual binding level at 10 uM by Kinomescan method relative to control
# [10] = target: Tyrosine-protein kinase Blk (Homo sapiens) (UniProt P51451); assay: Binding affinity to wild-type human partial length BLK (G211 to L503 residues) expressed in bacterial expression system assessed as residual binding level at 10 uM by Kinomescan method relative to control
# [11] = target: Vascular endothelial growth factor receptor 1 (Homo sapiens) (UniProt P17948); assay: Binding affinity to wild-type human partial length FLT1 (R781 to F1239 residues) expressed in bacterial expression system assessed as residual binding level at 10 uM by Kinomescan method relative to control
# [12] = test system: Receptor-type tyrosine-protein kinase FLT3 (Homo sapiens), P36888 [R834Q]; assay: Binding affinity to human partial length FLT3 R834Q mutant (V592 to Y969 residues) expressed in mammalian expression system assessed as residual binding level at 10 uM by Kinomescan method relative to control
# [13] = target: Serine/threonine-protein kinase 33 (Homo sapiens) (UniProt Q9BYT3); assay: Binding affinity to wild-type human full length STK33 (M1 to L514 residues) expressed in bacterial expression system assessed as residual binding level at 10 uM by Kinomescan method relative to control
# [14] = test system: Tyrosine-protein kinase ABL1 (Homo sapiens), P00519 [H396P]; assay: Binding affinity to human non-phosphorylated ABL1 H396P mutant (S229 to K512 residues) expressed in mammalian expression system assessed as residual binding level at 10 uM by Kinomescan method relative to control
# [15] = target: Ephrin type-B receptor 4 (Homo sapiens) (UniProt P54760); assay: Binding affinity to wild-type human partial length EPHB4 (H585 to G892 residues) expressed in bacterial expression system assessed as residual binding level at 10 uM by Kinomescan method relative to control
# [16] = test system: Epidermal growth factor receptor (Homo sapiens), P00533 [L861Q]; assay: Binding affinity to human partial length EGFR L861Q mutant (R669 to V1011 residues) expressed in bacterial expression system assessed as residual binding level at 10 uM by Kinomescan method relative to control
# [17] = target: Serine/threonine-protein kinase OSR1 (Homo sapiens) (UniProt O95747); assay: Binding affinity to wild-type human full length OSR1 (M1 to S527 residues) expressed in mammalian expression system assessed as residual binding level at 10 uM by Kinomescan method relative to control
# [18] = target: RAC-gamma serine/threonine-protein kinase (Homo sapiens) (UniProt Q9Y243); assay: Binding affinity to wild-type human partial length AKT3 expressed in bacterial expression system assessed as residual binding level at 10 uM by Kinomescan method relative to control
# [19] = target: Beta-adrenergic receptor kinase 1 (Homo sapiens) (UniProt P25098); assay: Binding affinity to wild-type human full length GRK2 (M1 to L689 residues) expressed in mammalian expression system assessed as residual binding level at 10 uM by Kinomescan method relative to control
# [20] = test system: Hepatocyte growth factor receptor (Homo sapiens), P08581 [M1250T]; assay: Binding affinity to human partial length MET M1250T mutant (D1010 to S1367 residues) expressed in bacterial expression system assessed as residual binding level at 10 uM by Kinomescan method relative to control
# [21] = test system: Mast/stem cell growth factor receptor Kit (Homo sapiens), P10721 [D816H]; assay: Binding affinity to human partial length KIT D816H mutant (I571 to D952 residues) expressed in mammalian expression system assessed as residual binding level at 10 uM by Kinomescan method relative to control
# [22] = target: Serine/threonine-protein kinase Sgk1 (Homo sapiens) (UniProt O00141); assay: Binding affinity to wild-type human partial length SGK (I60 to L431 residues) expressed in mammalian expression system assessed as residual binding level at 10 uM by Kinomescan method relative to control
# [23] = target: Calcium/calmodulin-dependent protein kinase type II subunit delta (Homo sapiens) (UniProt Q13557); assay: Binding affinity to wild-type human partial length CAMK2D (M1 to E329 residues) expressed in bacterial expression system assessed as residual binding level at 10 uM by Kinomescan method relative to control
# [24] = target: Phosphatidylinositol 5-phosphate 4-kinase type-2 beta (Homo sapiens) (UniProt P78356); assay: Binding affinity to wild-type human full length PIP5K2B (M1 to T416 residues) expressed in bacterial expression system assessed as residual binding level at 10 uM by Kinomescan method relative to control
smiles,measurement,setting,value
O=C(Nc1cc(-c2cn(CCNc3c4c(nc5ccccc35)CCCC4)nn2)ccn1)Nc1cccc2c1C1CCCCN1C2=O (racemic),IC50,Huh-7,3000 nM
same,Activity,[1],88%
same,Activity,[2],100%
same,Activity,[3],5%
same,Activity,[4],2.8%
same,Activity,[5],94%
same,Activity,[6],100%
same,Activity,[7],16%
same,Activity,[8],100%
same,Activity,[9],100%
same,Activity,[10],44%
same,Activity,[11],1.6%
same,Activity,[12],1.3%
same,Activity,[13],6.7%
same,Activity,[14],1.8%
same,Activity,[15],100%
same,Activity,[16],67%
same,Activity,[17],100%
same,Activity,[18],100%
same,Activity,[19],100%
same,Activity,[20],91%
same,Activity,[21],2.2%
same,Activity,[22],0.3%
same,Activity,[23],80%
same,Activity,[24],16%
